Experimental data: patent publication US12606802B2, “Methods and compositions for improving the assembly of adeno-associated viruses (AAVs)” (priority 2019, dated 2026)
“Also recorded” adds a separate entry of the source.

Tests used:
[1] = system: AAV2 and AAV8 vector; assay: Vector production in HEK293 cells with chemical inhibitors, DRP by qPCR, serotype not separated; type: cell-based, adeno-associated virus
Procedure: (§1) Inhibitor-containing media was added to wells and transfection mixtures containing either AAV2 (light bars) or AAV8 (dark bars) production plasmids were added dropwise on top, and vector harvested 48 h later (FIG. 8A). […] To examine whether any of these were not directly inhibiting capsid assembly but rather a result of poor transfection efficiency, an upstream but important factor for vector production, the experiment was repeated adding inhibitors 4 h after transfection mixture was added to allow transfection steps to initiate (FIG. 8B).

[2] = system: AAV8; assay: AAV8 vector production in HEK293 cells with chemical inhibitors, DRP by qPCR; type: cell-based, adeno-associated virus
Procedure: as §1

[3] = system: AAV2; assay: AAV2 vector production in HEK293 cells with chemical inhibitors, DRP by qPCR; type: cell-based, adeno-associated virus
Procedure: as §1

[4] = system: HEK293 cells; assay: Cell viability by ATP levels (Cell Titer Glo); type: cell-based; conditions: 48 h
[5] = system: HEK293 cells; assay: General transfection efficiency by imaging EGFP positive cells; type: cell-based; conditions: for transfection efficiency / EGFP expression: inhibitor 4 h post transfection
[6] = system: HEK293 cells; conditions: 270 uM; 48 h
Procedure: General transfection efficiency was assessed visually by imaging EGFP positive cells (EGFP is present in the ITR-flanked transgene plasmid), and cell health was assessed visually by brightfield imaging and quantitatively by ATP levels in drug treated wells (light shading, FIG. 8B).
In these experiments, production plasmids were transfected into HEK293 cells and the appropriate inhibitor was serial diluted and added 4 h later at the concentrations indicated along the x-axis. The inhibitor was added at the same concentrations to a parallel plate and ATP levels were quantified by Cell Titer Glo® to assess cell viability after 48 h of incubation. General transfection efficiency (EGFP; present on ITR-flanked transgene plasmid) and cell morphology (Brightfield), at concentrations listed along the x-axis, were assessed by microscopy at 48 h, immediately before vector harvest from the same well.

[7] = system: AAV; conditions: cited from earlier work
[8] = system: PEI-mediated transfection of plasmid DNA; conditions: cited from earlier work
[9] = system: VP proteins; conditions: cited from earlier work
[10] = inhibitor added 4 h after transfection, harvest 48 h
[11] = inhibitor added immediately before transfection, harvest 48 h
[12] = higher concentrations, particularly 90-270 uM, 4 h post transfection
[13] = 6.25 μM, inhibitor added 4 h after transfection

## Cc1ccc2nc(CN(CCN(Cc3nc4ccc(C)cc4[nH]3)Cc3nc4ccc(C)cc4[nH]3)Cc3nc4ccc(C)cc4[nH]3)[nH]c2c1 [NSC348884]
[1]; [10]
  vector titer: not seen
[1]; [11]
  vector titer: large effect

## O=[N+]([O-])c1ccc(F)c([N+](=O)[O-])c1 [FDNB]
[1]; 4 h post transfection, likely artefact of ATP-based viable cell count
  per cell vector production (GC per living cell): increase

## NS(=O)(=O)c1ccc(N/N=C2\C(=O)Nc3ccc(Br)cc32)cc1 [Cdk2 inhibitor II]
[2]; [12]
  AAV8 production: dose-dependent effect
[2]; higher concentrations, 4 h post transfection
  decrease in AAV8 titer: ~10 fold
[3]; [12]
  AAV2 production: dose-dependent effect
[4]; 90-270 uM
  cell viability (as assayed by ATP): without affecting cell viability
[5]; 90-270 uM, 48 h
  gross transfection efficiency (by EGFP visualization): without affecting
[6]
  cell morphology: affected

## O=C1NC(=NCc2cccs2)S/C1=C\c1ccc2ncccc2c1 [Cdk1 inhibitor IV]
[1]; [10]
  vector titer: did not affect vector titer without concomitant decreases in both cell health and transfection efficiency
[2]; [13]
  AAV8 titer: appreciable decrease
[3]; [13]
  AAV2 production: no effect
[4]; 6.25 μM, added 4 h after transfection
  cell viability: without affecting cell viability

## NS(=O)(=O)OC[C@H]1C[C@@H](Nc2ncncc2C(=O)c2ccn(Cc3cccc(Br)c3)n2)C[C@@H]1O [ML-792]
[5]; 48 h
  transfection efficiency / EGFP expression: dramatic loss

## CO/C1=C\C(C)=C\[C@@H](C)[C@@H](O)[C@@H](C)C/C(C)=C/C=C/[C@H](OC)[C@@H]([C@@H](C)[C@@H](O)[C@H](C)[C@@]2(O)C[C@@H](O)[C@H](C)[C@@H](C(C)C)O2)OC1=O [Bafilomycin A1]
[1]; added 4 h post transfection at low doses
  reduction in vector titer: 10 fold
[1]; inhibitor added immediately before transfection, all doses, harvest 48 h
  vector production: abolished vector production to background levels
[1]; [11]
  vector titer: abolished vector production
[5]; low doses, added 4 h post transfection
  transfection efficiency: no visibly appreciable effect
[7]
  AAV infection: blocks AAV infection
[8]
  PEI-mediated transfection of plasmid DNA: blocks PEI-mediated transfection of plasmid DNA
[9]
  VP protein in the absence of AAP: rescue VP protein; also recorded: rescues degradation of some serotype's VP proteins

## apoptazole
[1]; [10]
  vector titer: strong dose dependent decrease
[2]; AAV8, lowest level reached, inhibitor 4 h post transfection
  vector production (GC per living cell as percentage of DMSO control): 5%
[4]; 300 uM
  cell death as assayed by ATP abundance: did not show appreciable cell death
[5]; 300 uM, 48 h
  expression of EGFP: robust expression of EGFP
[5]; 48 h
  transfection efficiency / EGFP expression: no apparent loss
